Measurements: article PMC12274840 (The Journal of Biological Chemistry, 2025)
“And” between values parts separate entries of the source, which are not always exact repeats. Equal entries are not always repeated. Where two headings read alike, the source gives them in different places.

What was measured:
[1] = system: E. coli KA797 cells carrying pUK21 with TEM-1 Y105R; type: cell-based, Escherichia coli; conditions: in combination with 100 μg/ml carbenicillin
[2] = system: E. coli KA797 cells carrying pUK21 with BlaC WT (Tat); assay: microbe, parasite or virus in culture; type: cell-based; conditions: in combination with 100 μg/ml carbenicillin
[3] = system: E. coli KA797 cells carrying pUK21 with TEM-1 WT (Sec); assay: microbe, parasite or virus in culture; type: cell-based; conditions: in combination with 100 μg/ml carbenicillin
[4] = target: T1, CTX-M-14 WT (Escherichia coli, UniProt Q9L5C7); assay: biochemical
T1 construct: 29 to 291 of CTX-M-14 (Q9L5C7); His tag with TEV cleavage site (N); made in house; host or cells: E. coli BL21 (DE3) pLysS

[5] = system: E. coli KA797 cells carrying pUK21 with TEM-1 Y105G; type: cell-based, Escherichia coli; conditions: in combination with 100 μg/ml carbenicillin
[6] = system: E. coli KA797 cells carrying pUK21 with BlaC I105G; type: cell-based, Escherichia coli; conditions: in combination with 100 μg/ml carbenicillin
[7] = target: TEM-1 WT (Escherichia coli, UniProt P62593); type: biochemical; parameters: 24 to 286 of TEM-1 (P62593); His tag with TEV cleavage site (N); made in house; host or cells: E. coli BL21 (DE3) pLysS; conditions: avibactam, TEM-1 WT
[8] = target: T2, BlaC WT (Mycobacterium tuberculosis, UniProt P9WKD3); type: biochemical
T2 construct: correspond to residue numbers 41-307 of BlaC (Uniprot entry P9WKD3-1); His tag with TEV cleavage site (N); made in house; host or cells: E. coli BL21 (DE3) pLysS

[9] = system: E. coli KA797 cells carrying pUK21 with CTX-M-14 WT (Tat); assay: microbe, parasite or virus in culture; type: cell-based; conditions: in combination with 100 μg/ml carbenicillin
[10] = system: E. coli KA797 cells carrying pUK21 with BlaC I105R; type: cell-based, Escherichia coli; conditions: in combination with 100 μg/ml carbenicillin
[11] = target: T3, CTX-M-14 Y105G (Escherichia coli, UniProt Q9L5C7, Y108G); assay: biochemical
T3 construct: 29 to 291 of CTX-M-14 (Q9L5C7); His tag with TEV cleavage site (N); made in house; host or cells: E. coli BL21 (DE3) pLysS

[12] = target: TEM-1 Y105G (Escherichia coli, UniProt P62593, Y103G); assay: In vitro inhibition of nitrocefin hydrolysis and simulation of inhibition curves, TEM-1 Y105G; type: biochemical; conditions: avibactam, simulation Eq 3/9
[13] = system: E. coli KA797 cells carrying pUK21 with NmcA (pelB/Sec); assay: microbe, parasite or virus in culture; type: cell-based; conditions: in combination with 25 μg/ml carbenicillin
[14] = system: E. coli KA797 cells carrying BlaC position 105 library; type: cell-based, Escherichia coli; conditions: for Fi AVG (average fitness): average of replicates
[15] = system: E. coli KA797 cells carrying pUK21 with KPC-2 (Tat); assay: microbe, parasite or virus in culture; type: cell-based; conditions: in combination with 100 μg/ml carbenicillin
[16] = system: E. coli KA797 cells carrying pUK21 with CTX-M-14 Y105G; type: cell-based, Escherichia coli; conditions: in combination with 100 μg/ml carbenicillin
[17] = system: E. coli KA797 cells carrying pUK21 with CTX-M-14 Y105R; type: cell-based, Escherichia coli; conditions: in combination with 100 μg/ml carbenicillin
[18] = avibactam, simulation Eq 3/9, CTX-M-14 WT
[19] = avibactam, simulation Eq 3/9, CTX-M-14 Y105G

T2 sequence (P9WKD3 41-307): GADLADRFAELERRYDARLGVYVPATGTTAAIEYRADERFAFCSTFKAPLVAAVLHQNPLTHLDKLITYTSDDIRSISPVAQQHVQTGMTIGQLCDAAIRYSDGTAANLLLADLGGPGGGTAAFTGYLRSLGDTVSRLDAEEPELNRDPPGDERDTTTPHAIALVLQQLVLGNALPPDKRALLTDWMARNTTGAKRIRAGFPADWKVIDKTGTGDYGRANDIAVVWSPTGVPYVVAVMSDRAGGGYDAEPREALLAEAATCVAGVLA

NC(=O)[C@@H]1CC[C@@H]2CN1C(=O)N2OS(=O)(=O)O [avibactam]
MIC of inhibitor [1]: 4 µg/mL
MIC of inhibitor [2]: 16 µg/mL
MIC of inhibitor [3]: 1 µg/mL
Ki [4]: 0.47 µM
k2 [4, 18]: 6.6 10^−2 s^−1
k-2 [4, 18]: 0.3 10^−3 s^−1
k1 ([4]; avibactam, simulation Eq 9, CTX-M-14 WT): 1e+06 M⁻¹ s⁻¹
MIC of inhibitor [5]: 16 µg/mL
MIC of inhibitor [6]: 32 µg/mL
k2 ([7]; simulation Eq 3/9): 5.7 10^−2 s^−1
k-2 ([7]; simulation Eq 3/9): 0.2 10^−3 s^−1
k1 ([7]; simulation Eq 9): 1e+06 M⁻¹ s⁻¹
k2 [8]: 6.5 and 6.5 10^−2 s^−1
k-2 [8]: 0.1 and 0.1 10^−3 s^−1
MIC of inhibitor [9]: 0.5 µg/mL
MIC of inhibitor [10]: 64 µg/mL
Ki [11]: 50 µM
k2 [11, 19]: 4.6 10^−2 s^−1
k-2 [11, 19]: 0.25 10^−3 s^−1
k2 [12]: 5 10^−2 s^−1
k-2 [12]: 0.75 10^−3 s^−1
MIC of inhibitor [13]: 0.5 µg/mL
Fi AVG (average fitness) ([14]; AA 105 Ala (BlaC I105A), relative to WT Ile): 0.716
Significance of average fitness ([14]; AA 105 Arg (BlaC I105R)): +
Fi AVG (average fitness) ([14]; AA 105 Arg (BlaC I105R), relative to WT Ile): 2.021
Fi AVG (average fitness) ([14]; AA 105 Asn (BlaC I105N), relative to WT Ile): -0.462
Fi AVG (average fitness) ([14]; AA 105 Asp (BlaC I105D), relative to WT Ile): 0.306
Fi AVG (average fitness) ([14]; AA 105 Cys (BlaC I105C), relative to WT Ile): 0.512
Significance of average fitness ([14]; AA 105 Gln (BlaC I105Q)): +
Fi AVG (average fitness) ([14]; AA 105 Gln (BlaC I105Q), relative to WT Ile): 1.438
Fi AVG (average fitness) ([14]; AA 105 Glu (BlaC I105E), relative to WT Ile): 0.205
Significance of average fitness ([14]; AA 105 Gly (BlaC I105G)): +
Fi AVG (average fitness) ([14]; AA 105 Gly (BlaC I105G), relative to WT Ile): 2.428
Fi AVG (average fitness) ([14]; AA 105 His (BlaC I105H), relative to WT Ile): 0.810
Fi AVG (average fitness) ([14]; AA 105 Ile (BlaC WT, reference)): 0.000
Significance of average fitness ([14]; AA 105 Leu (BlaC I105L)): +
Fi AVG (average fitness) ([14]; AA 105 Leu (BlaC I105L), relative to WT Ile): 1.665
Significance of average fitness ([14]; AA 105 Lys (BlaC I105K)): +
Fi AVG (average fitness) ([14]; AA 105 Lys (BlaC I105K), relative to WT Ile): 0.933
Fi AVG (average fitness) ([14]; AA 105 Met (BlaC I105M), relative to WT Ile): 0.542
Significance of average fitness ([14]; AA 105 Phe (BlaC I105F)): +
Fi AVG (average fitness) ([14]; AA 105 Phe (BlaC I105F), relative to WT Ile): 2.659
Significance of average fitness ([14]; AA 105 Pro (BlaC I105P)): -
Fi AVG (average fitness) ([14]; AA 105 Pro (BlaC I105P), relative to WT Ile): -1.222
Significance of average fitness ([14]; AA 105 Ser (BlaC I105S)): +
Fi AVG (average fitness) ([14]; AA 105 Ser (BlaC I105S), relative to WT Ile): 1.393
Significance of average fitness ([14]; AA 105 Thr (BlaC I105T)): +
Fi AVG (average fitness) ([14]; AA 105 Thr (BlaC I105T), relative to WT Ile): 1.333
Significance of average fitness ([14]; AA 105 Trp (BlaC I105W)): +
Fi AVG (average fitness) ([14]; AA 105 Trp (BlaC I105W), relative to WT Ile): 2.468
Significance of average fitness ([14]; AA 105 Tyr (BlaC I105Y)): +
Fi AVG (average fitness) ([14]; AA 105 Tyr (BlaC I105Y), relative to WT Ile): 3.416
Fi AVG (average fitness) ([14]; AA 105 Val (BlaC I105V), relative to WT Ile): -0.187
WT abs Fi 1 ([14]; absolute fitness of BlaC WT (Ile 105), replicate 1): -1.354
WT abs Fi 2 ([14]; absolute fitness of BlaC WT (Ile 105), replicate 2): -1.584
WT abs Fi 3 ([14]; absolute fitness of BlaC WT (Ile 105), replicate 3): -0.942
MIC of inhibitor [15]: 0.5 µg/mL
MIC of inhibitor [16]: 2 µg/mL
MIC of inhibitor [17]: 1 µg/mL
